PubChem BioAssay AID2060604 (Molecular Pharmacology Branch, DTP, NCI, 2025)

Test system: 379773-124-R-J2-PDC complex spheroids, viability % test/control
Assay: Anticancer human tumor 379773-124-R-J2-PDC patient-derived endometrial carcinoma cell line growth inhibition [CLK]
Conditions: for IC50: curve of first compound; for viability, T/C: stronger effect = lower value
In short: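 Multi-cell-type spheroids combined patient-derived tumor cells with HUVEC endothelial cells and human mesenchymal stem cells. Paired agents were dosed in half-log steps down from about clinical Cmax, or from 10 microM where Cmax was unknown.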

[1] = second compound 0.0316 µM, first compound 0.0316 µM
[2] = second compound 0.0316 µM, first compound 0.1 µM
[3] = second compound 0.0316 µM, first compound 0.316 µM
[4] = second compound 0.0316 µM, first compound 1 µM
[5] = second compound 0.0316 µM, first compound 3.16 µM
[6] = second compound 0.0316 µM, first compound 10 µM
[7] = second compound 0.1 µM, first compound 0.0316 µM
[8] = second compound 0.1 µM, first compound 0.1 µM
[9] = second compound 0.1 µM, first compound 0.316 µM
[10] = second compound 0.1 µM, first compound 1 µM
[11] = second compound 0.1 µM, first compound 3.16 µM
[12] = second compound 0.1 µM, first compound 10 µM
[13] = second compound 0.316 µM, first compound 0.0316 µM
[14] = second compound 0.316 µM, first compound 0.1 µM
[15] = second compound 0.316 µM, first compound 0.316 µM
[16] = second compound 0.316 µM, first compound 1 µM
[17] = second compound 0.316 µM, first compound 3.16 µM
[18] = second compound 0.316 µM, first compound 10 µM
[19] = second compound 1 µM, first compound 0.0316 µM
[20] = second compound 1 µM, first compound 0.1 µM
[21] = second compound 1 µM, first compound 0.316 µM
[22] = second compound 1 µM, first compound 1 µM
[23] = second compound 1 µM, first compound 3.16 µM
[24] = second compound 1 µM, first compound 10 µM
[25] = second compound 3.16 µM, first compound 0.0316 µM
[26] = second compound 3.16 µM, first compound 0.1 µM
[27] = second compound 3.16 µM, first compound 0.316 µM
[28] = second compound 3.16 µM, first compound 1 µM
[29] = second compound 3.16 µM, first compound 3.16 µM
[30] = second compound 3.16 µM, first compound 10 µM
[31] = second compound 10 µM, first compound 0.0316 µM
[32] = second compound 10 µM, first compound 0.1 µM
[33] = second compound 10 µM, first compound 0.316 µM
[34] = second compound 10 µM, first compound 1 µM
[35] = second compound 10 µM, first compound 3.16 µM
[36] = second compound 10 µM, first compound 10 µM
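Further: compound exposure lasted seven days before the viability readout.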
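Wherever viability, T/C is given: 100% = DMSO vehicle control wells.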

SMILES: COc1ccc([C@@H](O)c2cc(-c3ncnc4cc(N5CCOCC5)ccc34)c(F)cc2Cl)nn1 + CNC(=O)c1ccc(Nc2nc(OC3CCCC3)c3c(-c4ccc5nc(C)oc5c4)c[nH]c3n2)c(OC)c1
- IC50 (second compound 0.0316 µM): 3.42 µM
- IC50 (second compound 0.1 µM): < 0.0316 µM
- IC50 (second compound 0.316 µM): < 0.0316 µM
- IC50 (second compound 1 µM): < 0.0316 µM
- IC50 (second compound 3.16 µM): < 0.0316 µM
- IC50 (second compound 10 µM): < 0.0316 µM
- viability, T/C [1]: 79.2%
- viability, T/C [2]: 79.9%
- viability, T/C [3]: 68%
- viability, T/C [4]: 60.6%
- viability, T/C [5]: 58.7%
- viability, T/C [6]: 20.4%
- viability, T/C [7]: 35.6%
- viability, T/C [8]: 30.8%
- viability, T/C [9]: 32.7%
- viability, T/C [10]: 29.7%
- viability, T/C [11]: 24%
- viability, T/C [12]: 12.7%
- viability, T/C [13]: 45.2%
- viability, T/C [14]: 38%
- viability, T/C [15]: 29%
- viability, T/C [16]: 21.6%
- viability, T/C [17]: 15.1%
- viability, T/C [18]: 7.43%
- viability, T/C [19]: 34.8%
- viability, T/C [20]: 35%
- viability, T/C [21]: 32.1%
- viability, T/C [22]: 25.9%
- viability, T/C [23]: 14.9%
- viability, T/C [24]: 6.1%
- viability, T/C [25]: 34.7%
- viability, T/C [26]: 32.3%
- viability, T/C [27]: 27.8%
- viability, T/C [28]: 19.3%
- viability, T/C [29]: 15.7%
- viability, T/C [30]: 4.62%
- viability, T/C [31]: 32.8%
- viability, T/C [32]: 33.7%
- viability, T/C [33]: 23.4%
- viability, T/C [34]: 17.9%
- viability, T/C [35]: 14.2%
- viability, T/C [36]: 4.23%

SMILES: COc1cccc2c1C(=O)c1c(O)c3c(c(O)c1C2=O)CC(O)(C(=O)CO)CC3OC1CC(N)C(O)C(C)O1 (centres undefined) + CNC(=O)c1ccc(Nc2nc(OC3CCCC3)c3c(-c4ccc5nc(C)oc5c4)c[nH]c3n2)c(OC)c1
- IC50 (second compound 0.0316 µM): < 0.0316 µM
- IC50 (second compound 0.1 µM): < 0.0316 µM
- IC50 (second compound 0.316 µM): < 0.0316 µM
- IC50 (second compound 1 µM): < 0.0316 µM
- IC50 (second compound 3.16 µM): < 0.0316 µM
- IC50 (second compound 10 µM): < 0.0316 µM
- viability, T/C [1]: 31.1%
- viability, T/C [2]: 6.01%
- viability, T/C [3]: 5.35%
- viability, T/C [4]: 3.7%
- viability, T/C [5]: 0.43%
- viability, T/C [6]: 0.22%
- viability, T/C [7]: 22.6%
- viability, T/C [8]: 6.93%
- viability, T/C [9]: 5.94%
- viability, T/C [10]: 3.46%
- viability, T/C [11]: 0.36%
- viability, T/C [12]: 0.17%
- viability, T/C [13]: 25.9%
- viability, T/C [14]: 4.93%
- viability, T/C [15]: 3.63%
- viability, T/C [16]: 2.73%
- viability, T/C [17]: 0.13%
- viability, T/C [18]: 0.11%
- viability, T/C [19]: 17.8%
- viability, T/C [20]: 4.68%
- viability, T/C [21]: 3.73%
- viability, T/C [22]: 1.18%
- viability, T/C [23]: 0.15%
- viability, T/C [24]: 0.06%
- viability, T/C [25]: 12%
- viability, T/C [26]: 5.12%
- viability, T/C [27]: 3.67%
- viability, T/C [28]: 1.27%
- viability, T/C [29]: 0.08%
- viability, T/C [30]: 0.12%
- viability, T/C [31]: 9.36%
- viability, T/C [32]: 5.57%
- viability, T/C [33]: 3.11%
- viability, T/C [34]: 1.07%
- viability, T/C [35]: 0.14%
- viability, T/C [36]: 0.23%
